Experimental data as given in patent US9738634B2, “Heterocyclic amide compound and herbicide” (SYNGENTA PARTICIPATIONS AG, priority 2013, dated 2017).

Legend:
Type in all cases: in vivo
[1] = test system: barnyard grass; experiment: Test Example 1: weedkilling efficacy, preemergent weed treatment in the submerged state; A: barnyard grass; settings: treatment dosage 252 g/ha
Outline: (§1)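 Pots of alluvial soil flooded 4 cm deep, sown with barnyard grass, bulrush and oval-leafed pondweed and transplanted with 2.5-leaf rice. Emulsified compound applied to the water surface on sowing day at stated g/ha; greenhouse 25–30 °C, effects assessed 3 weeks after treatment.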

[2] = test system: bulrush; experiment: Test Example 1: weedkilling efficacy, preemergent weed treatment in the submerged state; B: bulrush; settings: treatment dosage 252 g/ha
Outline: as §1

[3] = test system: oval-leafed pondweed; experiment: Test Example 1: weedkilling efficacy, preemergent weed treatment in the submerged state; C: oval-leafed pondweed; settings: treatment dosage 252 g/ha
Outline: as §1

[4] = test system: transplanted rice; experiment: Test Example 1: preemergent weed treatment in the submerged state, effect on crop; a: transplanted rice; settings: treatment dosage 252 g/ha
Outline: as §1

[5] = test system: barnyard grass; experiment: Test Example 2: weedkilling efficacy, growth period weed treatment in the submerged state; A: barnyard grass; settings: treatment dosage 252 g/ha
Outline: (§2)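 Barnyard grass, bulrush and oval-leafed pondweed sown in alluvial soil under 4 cm flooding, greenhouse 25 to 30° C. At 1-2 leaf stage, water-diluted emulsion applied to the water surface at stated g/ha dosages; effects scored 3 weeks later.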

[6] = test system: bulrush; experiment: Test Example 2: weedkilling efficacy, growth period weed treatment in the submerged state; B: bulrush; settings: treatment dosage 252 g/ha
Outline: as §2

[7] = test system: oval-leafed pondweed; experiment: Test Example 2: weedkilling efficacy, growth period weed treatment in the submerged state; C: oval-leafed pondweed; settings: treatment dosage 252 g/ha
Outline: as §2

[8] = test system: crabgrass; experiment: Test Example 3: weedkilling efficacy through soil treatment; D: crabgrass; settings: treatment dosage 315 g/ha
Outline: (§3)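 Crop and weed responses were judged three weeks after a uniform surface spray of the water-diluted emulsion at the given g/ha rate. Seeds sat beneath about 1.5 cm of sterilized diluvial soil, and boxes stood in a greenhouse at 25 to 30° C.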

[9] = test system: green foxtail; experiment: Test Example 3: weedkilling efficacy through soil treatment; E: green foxtail; settings: treatment dosage 315 g/ha
Outline: as §3

[10] = test system: wild oat; experiment: Test Example 3: weedkilling efficacy through soil treatment; G: wild oat; settings: treatment dosage 315 g/ha
Outline: as §3

[11] = test system: black-grass; experiment: Test Example 3: weedkilling efficacy through soil treatment; H: black-grass; settings: treatment dosage 315 g/ha
Outline: as §3

[12] = test system: Italian ryegrass; experiment: Test Example 3: weedkilling efficacy through soil treatment; I: Italian ryegrass; settings: treatment dosage 315 g/ha
Outline: as §3

[13] = test system: Indian mallow; experiment: Test Example 3: weedkilling efficacy through soil treatment; K: Indian mallow; settings: treatment dosage 315 g/ha
Outline: as §3

[14] = test system: redroot pigweed; experiment: Test Example 3: weedkilling efficacy through soil treatment; L: redroot pigweed; settings: treatment dosage 315 g/ha
Outline: as §3

[15] = test system: fig-leafed goosefoot; experiment: Test Example 3: weedkilling efficacy through soil treatment; M: fig-leafed goosefoot; settings: treatment dosage 315 g/ha
Outline: as §3

[16] = test system: chickweed; experiment: Test Example 3: weedkilling efficacy through soil treatment; N: chickweed; settings: treatment dosage 315 g/ha
Outline: as §3

[17] = test system: birds-eye speedwell; experiment: Test Example 3: weedkilling efficacy through soil treatment; p: birds-eye speedwell; settings: treatment dosage 315 g/ha
Outline: as §3

[18] = test system: directly sown rice; experiment: Test Example 3: soil treatment, effect on crop; b: directly sown rice; settings: treatment dosage 315 g/ha
Outline: as §3

[19] = test system: corn; experiment: Test Example 3: soil treatment, effect on crop; c: corn; settings: treatment dosage 315 g/ha
Outline: as §3

[20] = test system: soybean; experiment: Test Example 3: soil treatment, effect on crop; d: soybean; settings: treatment dosage 315 g/ha
Outline: as §3

[21] = test system: wheat; experiment: Test Example 3: soil treatment, effect on crop; e: wheat; settings: treatment dosage 315 g/ha
Outline: as §3

[22] = test system: beet; experiment: Test Example 3: soil treatment, effect on crop; f: beet; settings: treatment dosage 315 g/ha
Outline: as §3

[23] = test system: crabgrass; experiment: Test Example 4: weedkilling efficacy by foliar treatment; D: crabgrass; settings: treatment dosage 315 g/ha
Outline: (§4)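 Seeds are spot-sown into sterilized diluvial soil and covered with about 1.5 cm of soil. After 14 days' greenhouse growth at 25 to 30° C, plants are sprayed on stems and leaves with diluted emulsion at the stated g/ha rate, then scored at 3 weeks.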

[24] = test system: green foxtail; experiment: Test Example 4: weedkilling efficacy by foliar treatment; E: green foxtail; settings: treatment dosage 315 g/ha
Outline: as §4

[25] = test system: wild oat; experiment: Test Example 4: weedkilling efficacy by foliar treatment; G: wild oat; settings: treatment dosage 315 g/ha
Experimental: Testing of Weedkilling Efficacy by Foliar Treatment
Sterilized diluvial soil was introduced into 21 cm long, 13 cm wide, 7 cm deep plastic boxes, and seeds of crabgrass, green foxtail, barnyard grass, wild oat, black-grass, Italian ryegrass, common wind-grass, Indian mallow, redroot pigweed, fig-leafed goosefoot, chickweed, catchweed, birds-eye speedwell, corn, soybean, rice, wheat, beet and rapeseed were each spot-sown, and covered with about 1.5 cm of soil, then the plants were grown in a greenhouse at 25 to 30° C.
After they had grown for 14 days, emulsions of compounds of the present invention prepared according to compounding example 2 were diluted with water to give the specified dosages, and applied uniformly onto the stem and leaf parts with a small sprayer. 3 weeks after the pesticide treatment the effect on each type of plant was investigated on the basis of the assessment criteria of test example 1.
A: barnyard grass, B: bulrush, C: oval-leafed pondweed, D: crabgrass, E: green foxtail, F: barnyard grass, G: wild oat, H: black-grass, I: Italian ryegrass, J: common wind-grass, K: Indian mallow, L: redroot pigweed, M: fig-leafed goosefoot, N: chickweed, O: catchweed, p: birds-eye speedwell, a: transplanted rice, b: directly sown rice, c: corn, d: soybean, e: wheat, f: beet, g: rapeseed
Further, pesticide dosage (g/ha) indicates the concentration regulated such that treatment was with only the stated number of grams (g), when calculated per hectare (ha).

[26] = test system: black-grass; experiment: Test Example 4: weedkilling efficacy by foliar treatment; H: black-grass; settings: treatment dosage 315 g/ha
Outline: as §4

[27] = test system: Italian ryegrass; experiment: Test Example 4: weedkilling efficacy by foliar treatment; I: Italian ryegrass; settings: treatment dosage 315 g/ha
Outline: as §4

[28] = test system: Indian mallow; experiment: Test Example 4: weedkilling efficacy by foliar treatment; K: Indian mallow; settings: treatment dosage 315 g/ha
Outline: as §4

[29] = test system: redroot pigweed; experiment: Test Example 4: weedkilling efficacy by foliar treatment; L: redroot pigweed; settings: treatment dosage 315 g/ha
Outline: as §4

[30] = test system: fig-leafed goosefoot; experiment: Test Example 4: weedkilling efficacy by foliar treatment; M: fig-leafed goosefoot; settings: treatment dosage 315 g/ha
Outline: as §4

[31] = test system: chickweed; experiment: Test Example 4: weedkilling efficacy by foliar treatment; N: chickweed; settings: treatment dosage 315 g/ha
Outline: as §4

[32] = test system: catchweed; experiment: Test Example 4: weedkilling efficacy by foliar treatment; O: catchweed; settings: treatment dosage 315 g/ha
Outline: as §4

[33] = test system: directly sown rice; experiment: Test Example 4: foliar treatment, effect on crop; b: directly sown rice; settings: treatment dosage 315 g/ha
Outline: as §4

[34] = test system: corn; experiment: Test Example 4: foliar treatment, effect on crop; c: corn; settings: treatment dosage 315 g/ha
Outline: as §4

[35] = test system: soybean; experiment: Test Example 4: foliar treatment, effect on crop; d: soybean; settings: treatment dosage 315 g/ha
Outline: as §4

[36] = test system: wheat; experiment: Test Example 4: foliar treatment, effect on crop; e: wheat; settings: treatment dosage 315 g/ha
Outline: as §4

[37] = test system: beet; experiment: Test Example 4: foliar treatment, effect on crop; f: beet; settings: treatment dosage 315 g/ha
Outline: as §4

SMILES: CC1=C(c2ccccc2)C(=O)N(C(C)(C)C(=O)Nc2cccc(F)n2)CO1 [B-2-27]
- A (barnyard grass) weedkilling efficacy grade [1]: 5 (weed kill ratio 90% or more, (practically complete withering))
- B (bulrush) weedkilling efficacy grade [2]: 5 (weed kill ratio 90% or more, (practically complete withering))
- C (oval-leafed pondweed) weedkilling efficacy grade [3]: 5 (weed kill ratio 90% or more, (practically complete withering))
- a (transplanted rice) effect on crop grade [4]: 0 (weed kill ratio 5% or less (practically no effect))
- A (barnyard grass) weedkilling efficacy grade [5]: 4 (weed kill ratio 70% or more, less than 90%)
- B (bulrush) weedkilling efficacy grade [6]: 5 (weed kill ratio 90% or more, (practically complete withering))
- C (oval-leafed pondweed) weedkilling efficacy grade [7]: 5 (weed kill ratio 90% or more, (practically complete withering))
- D (crabgrass) weedkilling efficacy grade [8]: 5 (weed kill ratio 90% or more, (practically complete withering))
- E (green foxtail) weedkilling efficacy grade [9]: 5 (weed kill ratio 90% or more, (practically complete withering))
- G (wild oat) weedkilling efficacy grade [10]: 5 (weed kill ratio 90% or more, (practically complete withering))
- H (black-grass) weedkilling efficacy grade [11]: 5 (weed kill ratio 90% or more, (practically complete withering))
- I (Italian ryegrass) weedkilling efficacy grade [12]: 5 (weed kill ratio 90% or more, (practically complete withering))
- K (Indian mallow) weedkilling efficacy grade [13]: 5 (weed kill ratio 90% or more, (practically complete withering))
- L (redroot pigweed) weedkilling efficacy grade [14]: 5 (weed kill ratio 90% or more, (practically complete withering))
- M (fig-leafed goosefoot) weedkilling efficacy grade [15]: 5 (weed kill ratio 90% or more, (practically complete withering))
- N (chickweed) weedkilling efficacy grade [16]: 5 (weed kill ratio 90% or more, (practically complete withering))
- P (birds-eye speedwell) weedkilling efficacy grade [17]: 5 (weed kill ratio 90% or more, (practically complete withering))
- b (directly sown rice) effect on crop grade [18]: 5 (weed kill ratio 90% or more, (practically complete withering))
- c (corn) effect on crop grade [19]: 4 (weed kill ratio 70% or more, less than 90%)
- d (soybean) effect on crop grade [20]: 5 (weed kill ratio 90% or more, (practically complete withering))
- e (wheat) effect on crop grade [21]: 5 (weed kill ratio 90% or more, (practically complete withering))
- f (beet) effect on crop grade [22]: 4 (weed kill ratio 70% or more, less than 90%)
- D (crabgrass) weedkilling efficacy grade [23]: 5 (weed kill ratio 90% or more, (practically complete withering))
- E (green foxtail) weedkilling efficacy grade [24]: 5 (weed kill ratio 90% or more, (practically complete withering))
- G (wild oat) weedkilling efficacy grade [25]: 5 (weed kill ratio 90% or more, (practically complete withering))
- H (black-grass) weedkilling efficacy grade [26]: 5 (weed kill ratio 90% or more, (practically complete withering))
- I (Italian ryegrass) weedkilling efficacy grade [27]: 5 (weed kill ratio 90% or more, (practically complete withering))
- K (Indian mallow) weedkilling efficacy grade [28]: 4 (weed kill ratio 70% or more, less than 90%)
- L (redroot pigweed) weedkilling efficacy grade [29]: 4 (weed kill ratio 70% or more, less than 90%)
- M (fig-leafed goosefoot) weedkilling efficacy grade [30]: 3 (weed kill ratio 40% or more, less than 70%)
- N (chickweed) weedkilling efficacy grade [31]: 4 (weed kill ratio 70% or more, less than 90%)
- O (catchweed) weedkilling efficacy grade [32]: 4 (weed kill ratio 70% or more, less than 90%)
- b (directly sown rice) effect on crop grade [33]: 5 (weed kill ratio 90% or more, (practically complete withering))
- c (corn) effect on crop grade [34]: 4 (weed kill ratio 70% or more, less than 90%)
- d (soybean) effect on crop grade [35]: 4 (weed kill ratio 70% or more, less than 90%)
- e (wheat) effect on crop grade [36]: 4 (weed kill ratio 70% or more, less than 90%)
- f (beet) effect on crop grade [37]: 4 (weed kill ratio 70% or more, less than 90%)
